What was measured:
AChE [1] = biological target: T1, AChE (Homo sapiens, UniProt P22303); assay: biochemical
BChE = BChE (Homo sapiens, UniProt P06276); assay: biochemical
AChE [2] = biological target: T1, AChE; assay: Kinetic study of AChE inhibition; type: biochemical

T1 sequence (P22303 32-614): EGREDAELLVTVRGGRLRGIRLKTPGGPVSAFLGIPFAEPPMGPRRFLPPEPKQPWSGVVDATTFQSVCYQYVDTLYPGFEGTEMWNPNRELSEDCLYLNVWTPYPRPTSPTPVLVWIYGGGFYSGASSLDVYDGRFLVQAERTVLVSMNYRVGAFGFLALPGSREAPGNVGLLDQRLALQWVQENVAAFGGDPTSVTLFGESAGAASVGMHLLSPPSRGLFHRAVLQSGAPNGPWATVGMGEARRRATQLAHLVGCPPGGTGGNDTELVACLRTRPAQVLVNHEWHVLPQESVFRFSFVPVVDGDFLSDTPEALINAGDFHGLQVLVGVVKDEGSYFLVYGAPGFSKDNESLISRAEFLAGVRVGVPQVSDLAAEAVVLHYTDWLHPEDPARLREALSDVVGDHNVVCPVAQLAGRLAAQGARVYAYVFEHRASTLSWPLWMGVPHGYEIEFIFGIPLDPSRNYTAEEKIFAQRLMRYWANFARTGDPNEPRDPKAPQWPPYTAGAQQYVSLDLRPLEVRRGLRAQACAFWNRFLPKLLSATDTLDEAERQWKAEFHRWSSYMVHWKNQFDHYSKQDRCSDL
Chain of BChE (P06276 29-602): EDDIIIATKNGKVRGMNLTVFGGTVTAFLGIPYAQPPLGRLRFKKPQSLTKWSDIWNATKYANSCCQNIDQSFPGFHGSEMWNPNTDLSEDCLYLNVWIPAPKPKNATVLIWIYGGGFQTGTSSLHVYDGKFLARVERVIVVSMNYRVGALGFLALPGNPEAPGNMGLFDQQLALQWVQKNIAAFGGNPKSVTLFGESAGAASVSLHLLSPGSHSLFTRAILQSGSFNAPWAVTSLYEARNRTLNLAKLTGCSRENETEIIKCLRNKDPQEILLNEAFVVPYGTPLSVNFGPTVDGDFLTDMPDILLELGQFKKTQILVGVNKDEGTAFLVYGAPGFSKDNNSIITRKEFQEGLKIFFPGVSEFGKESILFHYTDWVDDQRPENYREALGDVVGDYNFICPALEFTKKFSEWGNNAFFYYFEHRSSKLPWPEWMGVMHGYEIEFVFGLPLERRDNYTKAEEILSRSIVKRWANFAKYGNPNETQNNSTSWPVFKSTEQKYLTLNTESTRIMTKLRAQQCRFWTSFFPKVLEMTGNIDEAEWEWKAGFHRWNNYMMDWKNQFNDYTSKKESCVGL

SMILES: O=C(/C=C/c1ccc(OCCN2CCCC2)cc1)c1cc2ccccc2oc1=O [Compound 5e, (E)-3-(3-(4-(2-(pyrrolidin-1-yl)ethoxy)phenyl)acryloyl)-2H-chromen-2-one]
- IC50 (AChE [1]): 150 ± 10 nM
- inhibitory activity against AChE (in words) (AChE [1]): potent inhibitory activity
- selectivity over BChE (in words) (AChE [1]): high selectivity
- Selectivity for AChE (AChE [1]; IC50 (BChE)/IC50 (AChE)): 27.40
- IC50 (BChE): 4110 ± 160 nM
- Ki (AChE [2]): 110 nM
- non-competitive constant (Ki′) (AChE [2]; AChE, substrate acetylthiocholine iodide, pH 7.4, 30 °C): 190 nM
- inhibition mechanism against AChE (AChE [2]; Lineweaver-Burk analysis): mixed-type inhibition

— publication PMC6309603 (Molecular diversity, 2018)
